Literature values as cited in patent US11395831B2, “Combination products of tobramycin compounds and dexameihasone compounds” (Somerset Therapeutics, LLC, priority 2020, dated 2022).
≈ marks a conversion by molar mass, not a printed value.

**Q.** Which solubility in water does the source give for NC[C@H]1O[C@H](O[C@H]2[C@H](O)[C@@H](O[C@H]3O[C@H](CO)[C@@H](O)[C@H](N)[C@H]3O)[C@H](N)C[C@@H]2N)[C@H](N)C[C@@H]1O [tobramycin, 0-{3-amino-3-deoxy-α-D-gluco-pyranosyl-(1→4)}-0-{2,6-diamino-2,3,6-trideoxy-α-D-ribohexo-pyranosyl-(1→6)}-2-deoxystreptamine] here?
**A.** The solubility in water was 94 mg/mL (≈ 201 mM).
